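96-well plates; 48 h exposure; 5 concentrations. Endpoints by linear interpolation between flanking doses. Not reached: highest tested concentration assigned. The concentration for full growth arrest is given as TGI.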 Where a SMILES comes first, the peptide text is derived from it. The star is where a group is joined. Cbz = O=C(OCc1ccccc1)*; OBn = c1ccc(CO*)cc1

For the first assay, the system named is RXF 393 renal. Nature of the assay: inhibition of tumour cell growth, NCI panel, 48 h.
`O=C1c2cc3c(cc2CC12Cc1cc4c(cc1C2=O)CCCC4)CCCC3`: the TGI was found to be 51.6 µM.
The same measure, in the same setting: as for `O=C1CSC2(CC(/C=C/c3ccccc3O)=NN2c2cccc(S(=O)(=O)O)c2)N1c1nc2ccccc2s1` (configuration not stated), the figure is over 100 µM; as for `CC1(C)C(=O)N(O)C(C)(C)N1O`, over 10 µM; as for `CCOC(=O)/C(O)=C(/C=N\C(=S)Nc1ccccc1Cl)C(=O)OCC`, over 100 µM.
Same read-out and setting: the same measure for `O=C(NC(C(F)(F)F)(C(F)(F)F)P(=O)(c1ccccc1)c1ccccc1)C(C(F)(F)F)C(F)(F)F`: 68.2 µM; for `O=C1CC(=O)NC(=NN2C(=O)CSC2c2ccc(Cl)c(Cl)c2)N1` (configuration not stated): over 100 µM; for `O=C1NC(N2CCOCC2)=N/C1=C\c1cccs1`: over 100 µM.
Still for that read-out and setting: as for `CSc1nc2ccccc2c(=O)n1/N=C1\C(=O)N(CN2CCCCC2)c2ccc(Cl)cc21`, the figure is 33.4 µM.

Another assay relates to MDA-N. Briefly: inhibition of tumour cell growth, NCI panel, 48 h.
`COC(=O)CNC(=O)C(C)NC(=O)C(CC(=O)OCc1ccccc1)NC(=O)OCc1ccccc1` (stereo not drawn) (Cbz-Asp(OBn)-Ala-Gly-OMe; configuration not given here) yielded a TGI of over 100 µM.
`CC(C)=CCOc1cc(NC(=S)c2ccoc2C)ccc1Cl` showed a TGI of over 100 µM.
The same measure, in the same setting: the same measure for `C[C@H]1[C@H](C)N(Cc2ccccc2)P(=O)(C(O)/C=C/c2ccccc2)N1Cc1ccccc1` (some centres not stated): 13.6 µM.
In turn, `O=C1c2cc3c(cc2CC12Cc1cc4c(cc1C2=O)CCCC4)CCCC3` yielded a TGI of over 100 µM.
On the same count and under the same terms, as for `O=C1CSC2(CC(/C=C/c3ccccc3O)=NN2c2cccc(S(=O)(=O)O)c2)N1c1nc2ccccc2s1` (configuration not stated), the figure is over 100 µM; as for `CC1(C)C(=O)N(O)C(C)(C)N1O`, over 10 µM.
On the same count and under the same terms, the same measure for `CCOC(=O)/C(O)=C(/C=N\C(=S)Nc1ccccc1Cl)C(=O)OCC`: over 100 µM; for `O=C(NC(C(F)(F)F)(C(F)(F)F)P(=O)(c1ccccc1)c1ccccc1)C(C(F)(F)F)C(F)(F)F`: 44.2 µM.
Still for that read-out and setting: as for `O=C1CC(=O)NC(=NN2C(=O)CSC2c2ccc(Cl)c(Cl)c2)N1` (configuration not stated), the figure is over 100 µM; as for `O=C1NC(N2CCOCC2)=N/C1=C\c1cccs1`, over 100 µM.
In the case of `CSc1nc2ccccc2c(=O)n1/N=C1\C(=O)N(CN2CCCCC2)c2ccc(Cl)cc21`, the TGI was over 100 µM.

Another assay concerns NCI-H522 lung. Nature of the assay: inhibition of tumour cell growth, NCI panel, 48 h.
For `COC(=O)CNC(=O)C(C)NC(=O)C(CC(=O)OCc1ccccc1)NC(=O)OCc1ccccc1` (stereo not drawn) (Cbz-Asp(OBn)-Ala-Gly-OMe; configuration not given here), the TGI is over 100 µM.
On the same count and under the same terms, the same measure for `CC(C)=CCOc1cc(NC(=S)c2ccoc2C)ccc1Cl`: over 100 µM; for `C[C@H]1[C@H](C)N(Cc2ccccc2)P(=O)(C(O)/C=C/c2ccccc2)N1Cc1ccccc1` (some centres not stated): over 25 µM; for `O=C1c2cc3c(cc2CC12Cc1cc4c(cc1C2=O)CCCC4)CCCC3`: over 100 µM.
In the case of `O=C1CSC2(CC(/C=C/c3ccccc3O)=NN2c2cccc(S(=O)(=O)O)c2)N1c1nc2ccccc2s1` (configuration not stated), the TGI was 30.4 µM.
The same measure, in the same setting: as for `CC1(C)C(=O)N(O)C(C)(C)N1O`, the figure is over 10 µM; as for `CCOC(=O)/C(O)=C(/C=N\C(=S)Nc1ccccc1Cl)C(=O)OCC`, over 100 µM.
The compound `O=C(NC(C(F)(F)F)(C(F)(F)F)P(=O)(c1ccccc1)c1ccccc1)C(C(F)(F)F)C(F)(F)F` displayed a TGI of 71.6 µM.
On to `O=C1CC(=O)NC(=NN2C(=O)CSC2c2ccc(Cl)c(Cl)c2)N1` (configuration not stated), for which the TGI was over 100 µM.
Still for that read-out and setting: as for `O=C1NC(N2CCOCC2)=N/C1=C\c1cccs1`, the figure is over 100 µM.
The same measure, in the same setting: the same measure for `CSc1nc2ccccc2c(=O)n1/N=C1\C(=O)N(CN2CCCCC2)c2ccc(Cl)cc21`: 37.3 µM.

In a further assay the test system is HT29 colon. Briefly: inhibition of tumour cell growth, NCI panel, 48 h.
Consider `COC(=O)CNC(=O)C(C)NC(=O)C(CC(=O)OCc1ccccc1)NC(=O)OCc1ccccc1` (stereo not drawn) (Cbz-Asp(OBn)-Ala-Gly-OMe; configuration not given here), for which the TGI is over 100 µM.
Still for that read-out and setting: as for `CC(C)=CCOc1cc(NC(=S)c2ccoc2C)ccc1Cl`, the figure is over 100 µM.
The same measure, in the same setting: the same measure for `C[C@H]1[C@H](C)N(Cc2ccccc2)P(=O)(C(O)/C=C/c2ccccc2)N1Cc1ccccc1` (some centres not stated): 12.3 µM; for `O=C1c2cc3c(cc2CC12Cc1cc4c(cc1C2=O)CCCC4)CCCC3`: over 100 µM; for `O=C1CSC2(CC(/C=C/c3ccccc3O)=NN2c2cccc(S(=O)(=O)O)c2)N1c1nc2ccccc2s1` (configuration not stated): over 100 µM.
On the same count and under the same terms, the same measure for `CC1(C)C(=O)N(O)C(C)(C)N1O`: over 10 µM; for `CCOC(=O)/C(O)=C(/C=N\C(=S)Nc1ccccc1Cl)C(=O)OCC`: over 100 µM; for `O=C(NC(C(F)(F)F)(C(F)(F)F)P(=O)(c1ccccc1)c1ccccc1)C(C(F)(F)F)C(F)(F)F`: 56 µM.
For `O=C1CC(=O)NC(=NN2C(=O)CSC2c2ccc(Cl)c(Cl)c2)N1` (configuration not stated), the TGI is over 100 µM.
Same read-out and setting: the same measure for `O=C1NC(N2CCOCC2)=N/C1=C\c1cccs1`: over 100 µM; for `CSc1nc2ccccc2c(=O)n1/N=C1\C(=O)N(CN2CCCCC2)c2ccc(Cl)cc21`: over 100 µM.

Another assay relates to HCT-15 colon. Nature of the assay: inhibition of tumour cell growth, NCI panel, 48 h.
For the compound `COC(=O)CNC(=O)C(C)NC(=O)C(CC(=O)OCc1ccccc1)NC(=O)OCc1ccccc1` (stereo not drawn) (Cbz-Asp(OBn)-Ala-Gly-OMe; configuration not given here), the TGI was over 100 µM.
On the same count and under the same terms, as for `CC(C)=CCOc1cc(NC(=S)c2ccoc2C)ccc1Cl`, the figure is over 100 µM.
The same measure, in the same setting: the same measure for `C[C@H]1[C@H](C)N(Cc2ccccc2)P(=O)(C(O)/C=C/c2ccccc2)N1Cc1ccccc1` (some centres not stated): over 25 µM; for `O=C1c2cc3c(cc2CC12Cc1cc4c(cc1C2=O)CCCC4)CCCC3`: over 100 µM; for `O=C1CSC2(CC(/C=C/c3ccccc3O)=NN2c2cccc(S(=O)(=O)O)c2)N1c1nc2ccccc2s1` (configuration not stated): over 100 µM.
On the same count and under the same terms, as for `CC1(C)C(=O)N(O)C(C)(C)N1O`, the figure is over 10 µM; as for `CCOC(=O)/C(O)=C(/C=N\C(=S)Nc1ccccc1Cl)C(=O)OCC`, over 100 µM; as for `O=C(NC(C(F)(F)F)(C(F)(F)F)P(=O)(c1ccccc1)c1ccccc1)C(C(F)(F)F)C(F)(F)F`, 83.3 µM.
Regarding `O=C1CC(=O)NC(=NN2C(=O)CSC2c2ccc(Cl)c(Cl)c2)N1` (configuration not stated), the TGI is over 100 µM.
Still for that read-out and setting: the same measure for `O=C1NC(N2CCOCC2)=N/C1=C\c1cccs1`: over 100 µM; for `CSc1nc2ccccc2c(=O)n1/N=C1\C(=O)N(CN2CCCCC2)c2ccc(Cl)cc21`: over 100 µM.

Source of the values: PubChem BioAssay (NCI).
